“And” between values parts separate entries of the source, which are not always exact repeats. Identical values can stand only once.
What was measured:
canine TRPM8 = biological target: T1, canine TRPM8 (Canis lupus familiaris, UniProt Q1A7N1); test: In Vitro Canine TRPM8 Functional Assay (Ca2+ fluorescence, icilin activation); assay type: cell-based; settings: for inhibition at 0.5 µM: HEK293, 0.5 μM compound; for IC50: HEK293 cells stably expressing canine TRPM8, icilin activation, Ca2+ fluorescence; for % Inh @ 0.5 μM: 0.5 μM compound; for inhibition at 0.2 µM: HEK293, 0.2 μM compound
T1 construct: expressed in transfected cells
How it was run: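 Antagonism read as inhibition of the intracellular Ca2+ rise evoked by icilin (~EC80), measured by FLIPR or FDSS. Stable canine TRPM8 HEK293 line, Calcium 3 dye; 5 min compound preincubation. Normalised, basal-corrected peak fluorescence from quadruplicates fitted to sigmoidal curves.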

[1] = test system: icilin-induced “wet-dog” shakes; test: Reversal of Icilin-Induced Behaviors in Rats; assay type: in vivo; settings: percent inhibition (reversal) of wet-dog shakes, rat, 30 mg/kg P.O., 20′ post-icilin
Description: (§1) Similar shaking or jumping behavior was also evident in mice, rabbits, cats, dogs and monkeys. In humans, icilin produced a sensation of coolness on contact with mucous membranes, cold prickling when 0.1 mg was dropped on the tongue and coldness in the mouth, pharynx and chest lasting 30-60 minutes when 5-10 mg was ingested orally (Wei E T, Seid D A, J Pharm Pharmacol. 1983, 35, 110). The inhibition or reversal of icilin-induced shaking behaviors in rodents provides evidence for the utility of TRPM8 antagonists of the formula (I) in treating or preventing a disease, syndrome, disorder or condition in a subject in which the disease, syndrome, disorder or condition is affected by the modulation of TRPM8 receptors.
Male Sprague Dawley rats (225-450 g, Charles River Labs, n=4-6/treatment) were used to evaluate the ability of selected compounds of the formula (I) to reverse icilin-induced “wet-dog” shakes. Icilin was administered in PEG-400 or 10% solutol/H2O, at 1.0 or 3.0 mg/kg, i.p. and spontaneous “wet-dog” shakes (WDS) were counted 10-20 minutes post-icilin. […] Results are presented as a percent inhibition of shakes, which was calculated as [1−(test compound WDS count/vehicle WDS count)]×100.

[2] = test system: icilin-induced “wet-dog” shakes; test: Inhibition of Icilin-Induced “Wet-Dog” Shakes in Rats; assay type: in vivo; settings: percent inhibition of wet-dog shakes; rat; 30 mg/kg p.o., 10% solutol, 2 h pre-icilin
Description: as §1
Male Sprague Dawley rats ([…], Charles River Labs, n=6-9/treatment) were used to evaluate the ability of selected compounds of the formula (I) to block icilin-induced “wet-dog” shakes (WDS). […] Icilin was administered in PEG-400 or 10% solutol/H2O, at 1.0 or 3.0 mg/kg, i.p. and spontaneous “wet-dog” shakes were counted 10-20 minutes post-icilin. Results are presented as a percent inhibition of shakes, which was calculated as [1−(test compound WDS count/vehicle WDS count)]×100.

T1 sequence (Q1A7N1 1-1104): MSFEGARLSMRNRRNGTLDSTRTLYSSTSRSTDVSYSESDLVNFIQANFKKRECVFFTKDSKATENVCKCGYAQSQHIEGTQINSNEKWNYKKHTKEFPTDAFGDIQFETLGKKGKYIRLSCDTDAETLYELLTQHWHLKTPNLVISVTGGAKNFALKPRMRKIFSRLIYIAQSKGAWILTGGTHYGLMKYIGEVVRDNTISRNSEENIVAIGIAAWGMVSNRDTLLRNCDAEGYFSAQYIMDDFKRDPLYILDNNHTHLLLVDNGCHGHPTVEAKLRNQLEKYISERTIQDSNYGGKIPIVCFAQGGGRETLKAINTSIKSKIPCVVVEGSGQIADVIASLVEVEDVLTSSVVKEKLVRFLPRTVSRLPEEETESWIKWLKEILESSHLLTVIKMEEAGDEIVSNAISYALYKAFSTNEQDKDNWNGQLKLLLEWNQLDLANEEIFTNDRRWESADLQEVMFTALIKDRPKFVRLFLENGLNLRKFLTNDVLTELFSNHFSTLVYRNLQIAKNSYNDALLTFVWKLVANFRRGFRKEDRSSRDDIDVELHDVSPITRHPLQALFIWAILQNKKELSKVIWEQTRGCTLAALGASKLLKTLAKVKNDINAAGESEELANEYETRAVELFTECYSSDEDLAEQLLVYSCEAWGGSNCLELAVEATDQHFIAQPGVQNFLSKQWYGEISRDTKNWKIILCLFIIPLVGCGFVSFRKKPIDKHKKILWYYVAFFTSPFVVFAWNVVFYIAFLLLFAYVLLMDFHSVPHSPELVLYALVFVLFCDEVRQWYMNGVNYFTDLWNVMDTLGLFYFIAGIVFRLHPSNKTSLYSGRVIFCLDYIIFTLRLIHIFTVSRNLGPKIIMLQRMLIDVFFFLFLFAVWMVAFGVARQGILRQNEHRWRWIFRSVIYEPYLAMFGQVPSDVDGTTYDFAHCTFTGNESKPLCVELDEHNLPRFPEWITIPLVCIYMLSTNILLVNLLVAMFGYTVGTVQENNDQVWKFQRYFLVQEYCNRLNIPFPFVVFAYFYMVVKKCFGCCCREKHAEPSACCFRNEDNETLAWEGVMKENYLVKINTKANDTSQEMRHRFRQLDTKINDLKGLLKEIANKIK

SMILES	IC50 (canine TRPM8)	inhibition at 0.2 µM (canine TRPM8; canine TRPM8 HEK293, icilin) [%]	also measured
O=C(C(Nc1ccccc1F)c1ccc(C(F)(F)F)cc1)N1CCCC1c1ccccc1 (single isomer, unassigned) [Cpd 129]	43 nM	–	% Inh @ 0.5 μM (canine TRPM8; canine TRPM8 HEK293, icilin): 101%; % Inh ([1]; 30 mg/kg): 50% ± 21%
O=C(C(Nc1ccccc1F)c1ccc(C(F)(F)F)cc1)N1CCCC1c1ccccc1F (single isomer, unassigned) [Cpd 149]	45 nM and 74 nM	83	inhibition at 0.5 µM (canine TRPM8; canine TRPM8 HEK293, icilin): 101%; % Inh ([1]; 30 mg/kg): 61% ± 15%
O=C(C(Nc1ccccc1F)c1ccc(C(F)(F)F)cc1)N1CCCC1c1ccccc1F (single isomer, unassigned) [Cpd 151]	7.2 nM and 5 nM	–	% Inh @ 0.2 μM (canine TRPM8; 0.2 μM compound, canine TRPM8 HEK293, icilin, 0.2 µM): 103%; % Inh @ 0.5 μM (canine TRPM8; canine TRPM8 HEK293, icilin): 100.72%; % Inh ([1]; 30 mg/kg): 99% ± 1%; % Inh [2]: 100%
O=C(C(Nc1ccccc1F)c1ccc(C(F)(F)F)cc1)N1CCCC1c1cccc(F)c1 (stereo not shown) [Cpd 134]	14 nM and 8.7 nM	–	% Inh @ 0.5 μM (canine TRPM8; canine TRPM8 HEK293, icilin): 98%; % Inh [1]: 75% ± 11%
O=C(C(Nc1ccccc1F)c1ccc(C(F)(F)F)cc1)N1CCC[C@H]1c1ccccc1F (stereo partly drawn) [Cpd 150, 2-(2-Fluoro-phenylamino)-1-[(2S)-2-(2-fluoro-phenyl)-pyrrolidin-1-yl]-2-(4-trifluoromethyl-phenyl)-ethanone]	12 nM and 4 nM	89	inhibition at 0.5 µM (canine TRPM8; canine TRPM8 HEK293, icilin): 100%; % Inh [1]: 63% ± 15%
O=C(C(c1ccc(C(F)(F)F)cc1)N1CCCc2ccccc21)N1Cc2ccccc2C1 (stereo not shown) [Cpd 363]	134 nM	72	–
O=C(C(Nc1c(F)cccc1F)c1ccc(Cl)cc1)N1CCCc2ccccc21 (stereo not shown) [Cpd 366]	46 nM	98	–
O=C(C(Nc1ccccc1F)c1cc2ccccc2s1)N1Cc2cccnc2C1 (stereo not shown) [Cpd 370]	120 nM	–	–
O=C(C(Nc1ccccc1F)c1cnc2ccccc2c1)N1Cc2ccccc2C1 (stereo not shown) [Cpd 371]	100 nM	–	–

Second part, led by results:

IC50 (canine TRPM8)	inhibition at 0.2 µM (canine TRPM8; canine TRPM8 HEK293, icilin) [%]	SMILES	also measured
4.6 nM	–	O=C(C(Nc1ccccc1F)c1ccc(C(F)(F)F)cc1)N1CCCC1c1ccccc1 (single isomer, unassigned) [Cpd 128]	inhibition at 0.5 µM (canine TRPM8; canine TRPM8 HEK293, icilin): 100%; % Inh ([1]; 30 mg/kg): 56% ± 19%
17 nM	–	O=C(C(Nc1ccccc1F)c1ccc(C(F)(F)F)cc1)N1CCCC1c1ccccc1Cl (single isomer, unassigned) [Cpd 155]	inhibition at 0.5 µM (canine TRPM8; canine TRPM8 HEK293, icilin): 99%; % Inh [1]: 79% ± 13%
5 nM	–	O=C(C(Nc1ccccc1F)c1ccc(Cl)cc1)N1CCCC1c1ccccc1F (single isomer, unassigned) [Cpd 158]	% Inh @ 0.5 μM (canine TRPM8; canine TRPM8 HEK293, icilin): 98%; % Inh [1]: 86% ± 7%
7 nM	100	O=C(C(Nc1ccccc1F)c1ccc(N2CCOCC2)nc1)N1CCCC1c1ccccc1F (stereo not shown) [Cpd 359]	–
8 nM	96	O=C(C(Nc1c(F)cccc1F)c1cc2ccccc2s1)N1CCCC1c1ccccc1F (stereo not shown) [Cpd 361]	–
36 nM	91	O=C(C(Nc1ccccc1F)c1ccc(Cl)cc1)N1CCCc2ccccc21 (stereo not shown) [Cpd 364]	–
30 nM	94	O=C(C(Nc1ccccc1F)c1ccc(Br)cc1)N1CCCc2ccccc21 (stereo not shown) [Cpd 365]	–
6 nM	–	O=C(C(Nc1ccccc1F)c1cnc2ccccc2c1)N1CCCC1c1ccccc1Cl (stereo not shown) [Cpd 373]	–

Source: patent US8143259B2, “Cold menthol receptor antagonists” (Janssen Pharmaceutica, NV, priority 2008, dated 2012)
